Measurements from patent EP0667959B1, “Methods for identifying inhibitors of the production of beta-amyloid peptide” (ELAN PHARMACEUTICALS, INC., priority 1992, dated 1994).

Tests used:
[1] = target: Monoclonal antibodies to the junction region of βAP; experiment: Saturation analysis (RIA): displacement of 125I-labeled βAP1-28 from junction-region hybridoma clones by unlabeled peptide; format: binding, mice
Description: The RIA method used to screen serum bleeds and fusion hybridoma supernatants was based upon a method developed by Wang et al. (1977) J. Immunol. Methods 18:157-164. Briefly, the supernatant (or serum) was incubated overnight at room temperature on a rotator with ^125I-labeled βAP1-28 and Sepharose® 4B beads to which sheep anti-mouse IgG had been coupled via cyanogen bromide. The beads from each well were harvested onto glass fiber filter discs with a cell harvester and washed several times with PBS. The filter discs were then transferred to gamma tubes and the bound radioactivity was counted in a gamma counter.
Based on results of the above assays, several clones were expanded into 24 well plates. These clones were further characterized by saturation analysis. Supernatants at the 50% titer point (as determined by the RIA method described above) were added to wells containing Sepharose®-sheep anti-mouse IgG beads, a constant amount of ^125I-labeled βAP1-28, and varying amounts of unlabeled βAP13-28 or βAP17-28. The concentration of cold peptide for 50% inhibition was determined for each antibody. […] The 50% inhibition point for βAP13-28 ranged from 10-80 ng/well. The clones were also characterized based on reactivity in Western blots. Based on titer point, sensitivity (as determined by the 50% inhibition point), and reactivity on Western blot, several clones were produced in ascites.

[2] = system: 266 capture antibody and 10D5 reporter antibody; experiment: βAP cross-reactivity in 266/10D5 sandwich ELISA; format: binding; details: molecule at 1-1000 ng/ml
Description: Monoclonal antibody 266 was diluted to a concentration of 5 µg/ml, and monoclonal antibody 067 to 10 µg/ml in a buffer containing NaH2PO4·7H2O, 26.2 g/L; NaN3, 1 g/L; pH 8.3. One hundred µl/well of this solution was then dispensed in a 96 well polystyrene transparent COSTAR plate and incubated overnight at room temperature. Following coating, the remaining solution was aspirated and the non-specific antibody binding sites were blocked with 0.25% human serum albumin (HSA) dissolved in a buffer containing NaH2PO4·H2O, 1 g/L; Na2HPO4·7H2O, 10.8 g/L; NaN3, 0.5 g/L and sucrose, 25 g/L; pH 7.4. These coated/blocked plates were used immediately or dried in a desiccator and stored in a dry container at 4°C for a maximum of 5 days.
Calibrators containing known amounts of βAP and samples from various bodily or extra bodily fluids were then added to the plate at 100 µl/well. The samples were added undiluted or diluted in a buffer containing NaH2PO4·H2O, 0.2 g/L; Na2HPO4·7H2O, 2.16 g/L; NaN3, 0.5 g/L; BSA (globulin free) 6 g/L; Triton X-405, 0.5 mL/L; NaCl, 8.5 g/L; pH 7.4. Samples and calibrators were incubated in the wells for 1 hour at room temperature, subsequently aspirated, and the wells washed with 300 µl/well of a solution containing NaCl, 80 g/L; KCl, 3.8 g/L; Tris base, 5.85 g/L; Tris HCl, 31.75 g/L; and 0.05% Tween® 20; pH 7.5 (TBS).
NHS-biotin (15 mg) was dissolved in 0.25 ml dimethylsulfoxide, and 10 µl of this solution was added to 1 mg of 10D5 or 6C6 antibody suspended in 1 ml of sodium carbonate solution, 50 mM, pH 8.5. The mixture was incubated in the dark for 1½ hours at room temperature and then dialyzed against phosphate buffered saline, pH 7.4 for 48 hours at 4°C, to produce biotinylated reporter antibody. One hundred µl/well of the biotinylated reporter antibody (10D5 or 6C6) diluted to 3 µg/ml was then added to each well and incubated for another hour at room temperature. The antibody diluent consisted of Trizma base, 1.21 g/L; NaCl, 29.22 g/L; NaN3, 1.5 g/L, Triton X 405, 0.5 ml/L; PEG (Mw 3350), 40 g/L; Mg Cl2·6H2O, 0.095 g/L; ZnCl2, 0.014 g/L; fetal bovine serum 100 ml/L; and BSA 2.5 g/L, pH 7.4.
After 1 hour incubation at room temperature with the reporter antibody (10D5 or 6C6) the supernatant was aspirated and the wells were washed three times with 300 µl/well of TBS. Streptavidin alkaline phosphatase (100 µl/well, diluted 1:2000 in the conjugate diluent buffer) was added and incubated for another hour at room temperature. […] Fluorescent substrate (4-methyl-umbellipheryl phosphate in 2-amino-2-methyl […] buffer; pH 9.5; (100 µl/well) was added) and fluorescence read and expressed as relative fluorescent units ([…]) after 15 minutes using a Cytofluor 2300 from Millipore, with 360/40 excitation filter and 460/40 emission filter. […]

| Substance | %Cross-Reactivity [2] [%] | also measured |
| --- | --- | --- |
| βAP13-28 (HHQKLVFFAEDVGSNK; Amyloid-beta protein 42; UniProt P05067 684-699, looked up, fragment) |  | concentration of cold peptide for 50% inhibition ([1]; range over the clones, supernatants at the 50% titer point, 125I-labeled βAP1-28): 10-80 ng/well |
| βAP17-28 (LVFFAEDVGSNK; Amyloid-beta protein 42; UniProt P05067 688-699, looked up, fragment) |  | inhibition of 125I-labeled βAP1-28 binding ([1]; at 100 ng/well, any clones): no inhibition |
| βAP Fragment 11-18 (EVHHQKLV; Amyloid-beta protein 42; UniProt P05067 682-689, looked up, fragment) | 0 |  |
| βAP Fragment 13-18 (HHQKLV; Amyloid-beta protein 42; UniProt P05067 684-689, looked up, fragment) | 0 |  |
| βAP Fragment 13-20 (HHQKLVFF; Amyloid-beta protein 42; UniProt P05067 684-691, looked up, fragment) | 0.2 |  |
| βAP Fragment 15-20 (QKLVFF; Amyloid-beta protein 42; UniProt P05067 686-691, looked up, fragment) | 0 |  |
